Measured values taken from the supplement of paper PMC10307832.

How the values were obtained:
Test in all cases: relative viability (nuclei count vs DMSO), 5 days (fraction); higher = more cells survive
Dabrafenib + OSI-027 = compound: CC(C)(C)c1nc(-c2cccc(NS(=O)(=O)c3c(F)cccc3F)c2F)c(-c2ccnc(N)n2)s1 [Dabrafenib] + COc1cccc2cc(-c3nc([C@H]4CC[C@H](C(=O)O)CC4)n4ncnc(N)c34)[nH]c12 [OSI-027] (partner 0.5 µM)
Procedure, shortened: (§1)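 Lung cancer cell lines were seeded in 1536-well plates and dosed by pin tool the next day, with either a single drug or a fixed anchor-drug dose combined with five library-drug doses (not always all listed) spaced in √10 steps. Five days later, one step fixed the cells and stained their nuclei (final 0.05% Triton X-100, 1% formaldehyde, 1 ug/ml Hoechst), and nuclei were counted on 4× images. Relative viability is the nuclei count in treated wells divided by the count in vehicle wells, and each value is the median of duplicate plates.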

Dabrafenib + Tozasertib = compound: CC(C)(C)c1nc(-c2cccc(NS(=O)(=O)c3c(F)cccc3F)c2F)c(-c2ccnc(N)n2)s1 [Dabrafenib] + Cc1cc(Nc2cc(N3CCN(C)CC3)nc(Sc3ccc(NC(=O)C4CC4)cc3)n2)n[nH]1 [Tozasertib] (partner 0.1 µM)
Procedure, shortened: as §1

Dabrafenib + Pictilisib = compound: CC(C)(C)c1nc(-c2cccc(NS(=O)(=O)c3c(F)cccc3F)c2F)c(-c2ccnc(N)n2)s1 [Dabrafenib] + CS(=O)(=O)N1CCN(Cc2cc3nc(-c4cccc5[nH]ncc45)nc(N4CCOCC4)c3s2)CC1 [Pictilisib] (partner 1 µM)
Procedure, shortened: as §1

Dabrafenib + Linsitinib = compound: CC(C)(C)c1nc(-c2cccc(NS(=O)(=O)c3c(F)cccc3F)c2F)c(-c2ccnc(N)n2)s1 [Dabrafenib] + C[C@]1(O)C[C@@H](c2nc(-c3ccc4ccc(-c5ccccc5)nc4c3)c3c(N)nccn32)C1 [Linsitinib] (partner 1 µM)
Procedure, shortened: as §1

Cell Line | relative viability (Dabrafenib + OSI-027; first compound 0.009487 µM) | relative viability (Dabrafenib + OSI-027; first compound 0.03 µM) | relative viability (Dabrafenib + OSI-027; first compound 0.09487 µM) | relative viability (Dabrafenib + OSI-027; first compound 0.3 µM) | relative viability (Dabrafenib + Tozasertib; first compound 0.009487 µM) | relative viability (Dabrafenib + Tozasertib; first compound 0.03 µM) | relative viability (Dabrafenib + Tozasertib; first compound 0.09487 µM) | relative viability (Dabrafenib + Tozasertib; first compound 0.3 µM) | relative viability (Dabrafenib + Pictilisib; first compound 0.003 µM) | relative viability (Dabrafenib + Pictilisib; first compound 0.009487 µM) | relative viability (Dabrafenib + Pictilisib; first compound 0.03 µM) | relative viability (Dabrafenib + Pictilisib; first compound 0.09487 µM) | relative viability (Dabrafenib + Pictilisib; first compound 0.3 µM) | relative viability (Dabrafenib + Linsitinib; first compound 0.003 µM) | relative viability (Dabrafenib + Linsitinib; first compound 0.009487 µM) | relative viability (Dabrafenib + Linsitinib; first compound 0.03 µM) | relative viability (Dabrafenib + Linsitinib; first compound 0.09487 µM) | relative viability (Dabrafenib + Linsitinib; first compound 0.3 µM) | relative viability (Dabrafenib + OSI-027; first compound 0.003 µM) | relative viability (Dabrafenib + Tozasertib; first compound 0.003 µM)
NCI-H596 | 0.976 | 0.63 | 0.658 | 0.886 | 0.781 | 0.826 | 0.821 | 0.977 | 0.372 | 0.364 | 0.194 | 0.397 | 0.423 | 1 | 1.14 | 0.796 | 1.08 | 1.14 | – | –
NCI-H441 | 0.465 | 0.565 | 0.438 | 0.352 | 0.555 | 0.632 | 0.571 | 0.495 | – | 0.54 | 0.406 | 0.374 | 0.401 | – | 0.48 | 0.54 | 0.32 | 0.383 | – | –
LOU-NH91 | 0.801 | 0.666 | 0.7 | 0.75 | 0.78 | 0.679 | 0.698 | 0.761 | – | 0.549 | 0.555 | 0.548 | 0.566 | – | 1.15 | 0.93 | 0.91 | 0.944 | 0.488 | 0.704
IA-LM | – | – | – | – | – | – | – | – | 0.379 | 0.569 | 0.444 | 0.412 | 0.255 | 0.443 | 0.575 | 0.547 | 0.283 | 0.424 | – | –
EBC-1 | – | – | – | – | – | – | – | – | 0.397 | 0.37 | 0.272 | 0.184 | 0.227 | 0.854 | 0.867 | 0.679 | 0.378 | 0.309 | – | –
NCI-H727 | 0.395 | 0.677 | 0.568 | 0.643 | 0.754 | 0.654 | 0.667 | 0.793 | – | 0.476 | 0.36 | 0.444 | 0.401 | – | 0.312 | 0.29 | 0.367 | 0.465 | – | –
NCI-H1395 | 0.692 | 0.594 | 0.583 | 0.589 | 0.633 | 0.762 | 0.667 | 0.648 | – | 0.652 | 0.673 | 0.542 | 0.567 | – | 1.07 | 1.05 | 1.07 | 0.854 | 0.377 | 0.718
NCI-H2126 | 0.787 | 0.717 | 0.609 | 0.954 | 0.865 | 0.858 | 0.862 | 0.882 | 0.46 | 0.514 | 0.529 | 0.543 | 0.595 | 0.698 | 0.725 | 0.681 | 0.757 | 0.715 | 0.492 | 0.809
LCLC-97TM1 | 0.535 | 0.683 | 0.237 | 0.237 | 0.209 | 0.287 | 0.249 | 0.186 | – | 0.206 | 0.213 | – | 0.149 | – | 0.18 | 0.187 | – | 0.192 | 0.308 | 0.218
NCI-H460 | 0.651 | 0.629 | 0.591 | 0.534 | 0.482 | 0.436 | 0.374 | 0.375 | 0.194 | 0.352 | 0.245 | 0.653 | 0.553 | 0.84 | 0.952 | 0.68 | 0.757 | 0.826 | 0.641 | 0.0459
NCI-H1650 | 0.899 | 0.374 | 0.803 | 0.948 | 0.563 | 0.408 | 0.419 | 0.384 | 0.401 | 0.841 | 0.404 | 0.647 | 0.814 | – | – | – | – | – | 0.318 | 0.524
NCI-H1993 | 0.498 | 0.433 | 0.565 | 0.56 | 0.586 | 0.504 | 0.571 | 0.606 | 0.811 | 0.789 | 0.723 | 0.625 | 0.728 | 0.633 | 0.772 | 0.658 | 0.835 | 0.721 | 0.468 | 0.484
NCI-H522 | 0.761 | 0.642 | 0.714 | 0.757 | 0.471 | 0.59 | 0.58 | 0.621 | – | – | – | – | – | – | – | – | – | – | – | –
HCC-78 | 0.36 | 0.334 | 0.354 | 0.38 | 0.485 | 0.42 | 0.387 | 0.54 | – | 0.235 | 0.192 | 0.276 | 0.219 | – | 0.694 | 0.442 | 0.45 | 0.628 | – | –
HCC-44 | 0.614 | 0.511 | 0.478 | 0.591 | 0.974 | 0.976 | 0.836 | 0.989 | 0.555 | 0.67 | 0.499 | 0.704 | 0.699 | 0.624 | 0.706 | 0.822 | 0.605 | 0.701 | 0.45 | 0.959
Calu-6 | – | – | – | – | – | – | – | – | 0.968 | 0.913 | 0.867 | 0.715 | 0.694 | 0.939 | 0.951 | 0.72 | 0.737 | 0.675 | – | –
NCI-H2342 | 0.548 | 0.504 | 0.715 | 0.737 | 0.484 | 0.452 | 0.52 | 0.586 | – | – | – | – | – | – | – | – | – | – | 0.532 | 0.44
NCI-H1703 | – | – | – | – | – | – | – | – | 0.257 | 0.255 | 0.225 | 0.249 | 0.226 | 0.335 | 1.12 | 0.75 | 0.834 | 1.18 | – | –
NCI-H2170 | 0.698 | 0.589 | 0.745 | 0.684 | 0.811 | 0.632 | 0.62 | 0.727 | 0.251 | 0.394 | 0.293 | 0.311 | 0.323 | – | – | – | – | – | 0.749 | 0.805
NCI-H1792 | 0.749 | 0.618 | 0.737 | 0.753 | – | – | – | – | – | 0.307 | 0.237 | 0.311 | 0.242 | – | 0.599 | 0.485 | 0.528 | 0.394 | – | –
NCI-H1623 | 0.46 | 0.441 | 0.425 | 0.489 | 0.466 | 0.431 | 0.447 | 0.524 | – | – | – | – | – | – | – | – | – | – | – | –
